Assay results published in patent publication US20240285553A1, “METHODS TO MODULATE MITOPHAGY WITH SREBP SIGNALING PATHWAY ACTIVATORS” (THE TRUSTEES OF INDIANA UNIVERSITY, priority 2021, published 2024).
“Also recorded” adds a separate entry of the source.

Experiments:
[1] = test system: pulmonary arterial endothelial cells (PAECs); test: Western blot of mitochondrial marker TOM20 as measure of mitophagy; assay type: cell-based, human; settings: ECs / PAEC
Description: (§1) Western blot. Cell lysates were resolved on a SDS PAGE pre-cast gel (Invitrogen) and resolved proteins were transferred on to a PVDF membrane for further detection of proteins using specific antibodies. Antibodies for SREBP1 were purchased from Santa Cruz Biotechnology (Cat #sc-365513) and Novus biological (Cat #NB100-2215). SCD antibody was purchased from Santa Cruz Biotechnology (Cat #sc-58420). Tom20 and LAMP1 antibodies were purchased from Cell Signaling (Cat #42406S and 15665S, respectively).
(§2) First, degradation of a mitochondrial marker (TOM20) was evaluated as a bio-chemical marker of mitophagy induction.

PAEC / ECs = test: Immunofluorescence microscopy of Tom20 and lysosomal marker LAMP1 (mitophagy); assay type: cell-based, human; settings: ECs
Description: Immunofluorescence Microscopy. Cells were fixed with 4% Formaldehyde (Electron Microscopy Sciences, #C993M24) and permeabilized in the presence of 0.1% Triton X-100 (Sigma). Full-length SREBP1 was stained using mouse monoclonal antibody from Santa Cruz Biotechnology (Cat #sc-365513). Whereas nuclear SREBP1 was detected using antibody from Novus biological (Cat #NB100-2215). […] Tom20 and LAMP1 antibodies were purchased from Cell Signaling (Cat #42406S and 15665S, respectively). Images were captured on an inverted fluorescent microscope (Leica).
as §2
Fixed cells were stained with Tom20 and Lamp1 and the fluorescence images were captured on a fluorescence microscope.

ECs = test: Transmission electron microscopy for mitophagy; assay type: cell-based, human; settings: 10 uM propranolol, 10 uM R-propranolol or 0.1 uM JW480 for 12 hours
Method: Transmission Electron Microscopy. […] Thin sections from these fixed cell blocks were visualized on Tecnai Spirit (ThermoFisher) TEM Microscope. Images captured were analyzed.
TEM evidence. […] ECs exposed to these drugs were fixed and the images were captured on a TEM.

SREBP1 = test: Western blot of SREBP1, SCD and NCEH1 (SREBP1 activation); assay type: cell-based, human; settings: western blot
Description: as §1, with “respectively). […]” for “respectively).”

[2] = test system: Sugen/hypoxia-induced PAH in rats; test: Sugen/hypoxia (SuHx) rat model of PAH; assay type: in vivo
Method: FIGS. 10A-10C-R-propranolol attenuates rodent PAH. Sugen (20 mg/kg, IP) injection was administered to rats and then they were exposed to 3 weeks of hypoxia (10% FiO2) and then placed in normoxia (21% FiO2) for 4 weeks to develop severe pulmonary arterial hypertension (FIG. 10A is a schematic of the experimental procedure). Rats were then administered either r-propranolol (5 mg/kg/day, IP) for the last 4 weeks or r-propranolol (10 mg/kg/day, IP) for the last 2 weeks or vehicle for the last 4 weeks. Rats with vehicle exposure developed severe PAH at the end of the protocol as confirmed by right ventricular systolic pressures (RVSP; FIG. 10B) and surrogate measures of RV hypertrophy (RV/(LV+S); FIG. 10C).
FIGS. 15A-15M-R-propranolol attenuates rodent PAH. Sugen (20 mg/kg, IP) injection was administered to rats and then they were exposed to 3 weeks of hypoxia (10% FiO2) and then placed in normoxia (21% FiO2) for 4 weeks to develop severe pulmonary arterial hypertension (FIG. 15A is a schematic of the experimental procedure). Rats receiving Sugen (SuHx) for three weeks of 7 weeks were then administered either r-propranolol (5 mg/kg/day, IP) for the last 4 weeks or r-propranolol (10 mg/kg/day, IP) for the last 2 weeks or vehicle for the last 4 weeks. SuHx treated rats (but not controls) with vehicle exposure developed severe PAH at the end of the protocol as confirmed by right ventricular pressures (RVP; FIG. 15B) and right ventricular systolic pressures (RVSP; FIG. 15C, lane 1: control; lane 2: control+r-propranolol 5 mg; lane 3: SuHx 3 wk; lane 4: SuHx 7 wk; lane 5: SuHx+r-propranolol 5 mg; SuHx+r-propranolol 10 mg) and surrogate measures of RV hypertrophy (FIGS. 15D-15J). […] FIG. 15K show the PA thickness of SuHx treated rats with vehicle exposure vs r-propranolol exposure. FIG. 15L show the RV cross-sectional thickness of SuHx treated rats with vehicle exposure vs r-propranolol exposure.
R-propranolol attenuated rodent PAH. Rats were administered a one-time sugen (20 mg/kg, IP) injection and exposed to 3 weeks of hypoxia (10% FiO2) and then placed in normoxia (21% FiO2) for 4 weeks. […] In the last 4 week normoxic period, rats were administered either r-propranolol (5 mg/kg/day, IP) for the last 4 weeks or r-propranolol (10 mg/kg/day, IP) for the last 2 weeks or vehicle for the last 4 weeks. Rats with vehicle exposure developed severe PAH at the end of the protocol as confirmed by right ventricular systolic pressures (RVSP) and surrogate measures of RV hypertrophy (RV/(LV+S)).

HF-PH mice = test: High-fat diet AKR/J HF-PH mouse model; assay type: in vivo; settings: 4 weeks, implanted mini osmotic pump, vs vehicle
Description: FIG. 14: Using a mouse model fed a high-fat diet, AKR/J mice develop obesity, insulin resistance, heart failure with preserved ejection fraction, and pulmonary hypertension and are designated as “HF-PH mice”.
Using a mouse model fed a high-fat diet (Research Diets, New Brunswick, NJ) for 16-20 weeks, AKR/J mice (Jackson Laboratories, Bar Harbor, ME) develop obesity, insulin resistance, heart failure with preserved ejection fraction, and pulmonary hypertension. (Meng, et al., 2017; Arwood, et al., 2019).

beta-adrenergic receptor = settings: cited from earlier work
[3] = 5 mg/kg/day IP for the last 4 weeks
[4] = 10 mg/kg/day IP for the last 2 weeks

## CC(C)NC[C@@H](O)COc1cccc2ccccc12 [R-propranolol]
[1]
  Tom20 levels (mitophagy): decreased Tom20 levels; also recorded: lower
PAEC / ECs
  mitophagy by immunofluorescence (Tom20/Lamp1): induce mitophagy; also recorded: Tom20 was mobilized to lysosome
ECs
  mitophagy by TEM (bilipid membrane formation around mitochondria): promoted mitophagy
SREBP1; ECs / PAEC
  SCD (SREBP1 target) levels: elevated
  SREBP1 levels (non-cleaved; decrease indicates cleavage and activation): reduce SREBP1 levels
SREBP1; ECs
  NCEH1 levels: higher
[2]; [3]
  RV hypertrophy (RV/(LV+S)): trended toward improvement
  RVSP: trended toward improvement
[2]; [4]
  RV hypertrophy (RV/(LV+S)): attenuated
  RVSP: attenuated
HF-PH mice
  right ventricular systolic pressure: significantly decreased
beta-adrenergic receptor
  beta-adrenergic receptor affinity, fold less than propranolol: 100 fold
